Measured values as given in patent US20120157401A1, “METHODS FOR TREATING NEUROFIBROMATOSIS” (PTC Therapeutics, Inc., priority 2009, published 2012).
Like-named read-outs stand apart in the source and are kept apart here. Values belong to the molecule of their own block, whether it stands above or below them.

Tested on: hypoxia-inducible endogenous VEGF expression
Assay: Hypoxia-inducible endogenous VEGF expression ELISA in HeLa cells, dose-response EC50 (Table 3)
Format: cell-based, human
Experimental: The ability of the Compounds to modulate hypoxia-inducible endogenous VEGF expression may be analyzed as follows. VEGF protein levels may be monitored by an ELISA assay (R&D Systems). Briefly, HeLa cells may be cultured for 24-48 hours under hypoxic conditions (1% O2, 5% CO2, balanced with nitrogen) in the presence or absence of a Compound. The conditioned media may then be assayed by ELISA, and the concentration of VEGF calculated from the standard ELISA curve of each assay.
A dose-response analysis may be performed using the ELISA assay and conditions described above. The conditions for the dose-response ELISA are analogous to those described above. A series of, e.g., seven different concentrations may be analyzed. In parallel, a dose-response cytotoxicity assay may be performed using Cell Titer Glo (Promega) under the same conditions as the ELISA to ensure that the inhibition of VEGF expression was not due to the cytotoxicity.

[1] = Homo sapiens, HeLa, read-out: ELISA EC50 μM
[2] = Homo sapiens, HeLa cells, hypoxic conditions (1% O2), 24-48 hours, VEGF in conditioned media, read-out: ELISA EC50
[3] = Homo sapiens, HeLa cells, hypoxic conditions (1% O2), VEGF ELISA of conditioned media, read-out: ELISA EC50
[4] = HeLa cells, hypoxic conditions (1% O2), 24-48 hours, VEGF in conditioned media, read-out: ELISA EC50

SMILES: CN(C)CC(=O)Nc1ccc(C2c3[nH]c4ccc(Cl)cc4c3CCN2C(=O)Oc2ccc(Cl)cc2)cc1 (centres unmarked) [Compound 491]
- EC50 [1]: 0.04 to 0.2 µM

- EC50 [2]: > 1 µM
SMILES: O=C(Oc1ccc(Cl)cc1)N1CCc2c([nH]c3ccc(Cl)cc23)C1c1ccc(OCCCn2nccn2)cc1 (centres unmarked) [Compound 1016]

SMILES: O=C(Oc1ccc(Cl)cc1)N1CCc2c([nH]c3ccc(Cl)cc23)C1c1ccc(OCC(O)CN2CCCC2)cc1 (centres unmarked) [Compound 462]
- EC50 [1]: 0.008 to 0.04 µM

SMILES: COc1ccc(OC(=O)N2CCc3c([nH]c4ccc(Cl)cc34)C2c2ccc(OCC(N)=O)cc2)cc1 (centres unmarked) [Compound 1216]
- EC50 [2]: 0.008 to 0.04 µM

SMILES: CN(C)CCCOc1ccc(C2c3[nH]c4ccc(Cl)cc4c3CCN2C(=O)Oc2ccc(Cl)cc2)cc1 (centres unmarked) [Compound 479]
- EC50 [1]: 0.04 to 0.2 µM

SMILES: COCCN(C)CC(O)COc1ccc(C2c3[nH]c4ccc(Cl)cc4c3CCN2C(=O)Oc2ccc(F)cc2)cc1 (centres unmarked) [Compound 936]
- EC50 [1]: < 0.008 µM

SMILES: N#CCOc1ccc(C2c3[nH]c4ccc(Cl)cc4c3CCN2C(=O)Oc2ccc(Cl)cc2)cc1 (centres unmarked) [Compound 1520]
- EC50 [3]: < 0.008 µM

SMILES: CN1CCN(CCCOc2cccc(C3c4[nH]c5ccc(Cl)cc5c4CCN3C(=O)Oc3ccc(F)cc3)c2)CC1 (centres unmarked) [Compound 1113]
- EC50 [1]: 0.2 to 1 µM

SMILES: O=C(Oc1ccc(Cl)cc1)N1CCc2c([nH]c3ccc(Cl)cc23)C1c1ccc(OCCNc2cccnc2)cc1 (centres unmarked) [#843]
- EC50 [2]: < 0.008 µM

SMILES: COc1ccc(C2c3[nH]c4ccc(OC)cc4c3CCN2C(=O)Oc2ccc(Cl)cc2)cc1 (centres unmarked) [Compound 614]
- EC50 [2]: 0.2 to 1 µM

SMILES: COCCOCCOc1ccc(C2c3[nH]c4ccc(Cl)cc4c3CCN2C(=O)Oc2ccc(C)cc2)cc1 (centres unmarked) [Compound 677]
- EC50 [2]: 0.008 to 0.04 µM

SMILES: Cc1ccc(OC(=O)N2CCc3c([nH]c4ccc(Cl)cc34)C2c2ccc(OCCCN(C)C)cc2)cc1 (centres unmarked) [Compound 502]
- EC50 [1]: 0.04 to 0.2 µM

SMILES: C[Si](C)(C)CCS(=O)(=O)N1CCC(Oc2ccc(C3c4[nH]c5ccc(Cl)cc5c4CCN3C(=O)Oc3ccc(F)cc3)cc2)CC1 (centres unmarked) [Compound 1580]
- EC50 [3]: < 0.008 µM

SMILES: O=C(Oc1ccc(F)cc1)N1CCc2c([nH]c3ccc(Cl)cc23)C1c1ccc(OCCCCCCn2cncn2)cc1 (centres unmarked) [Compound 781]
- EC50 [2]: < 0.008 µM

SMILES: Cc1ccc(C2c3[nH]c4ccc(Br)cc4c3CCN2C(=O)Oc2ccc(F)cc2)cc1 (centres unmarked) [Compound 403]
- EC50 [4]: < 0.008 µM

SMILES: CC(=O)NCC(O)COc1ccc(C2c3[nH]c4ccc(Cl)cc4c3CCN2C(=O)Oc2ccc(Cl)cc2)cc1 (centres unmarked) [Compound 847]
- EC50 [2]: 0.008 to 0.04 µM

SMILES: COCCOC(=O)NCC(O)CCOc1ccc([C@H]2c3[nH]c4ccc(Cl)cc4c3CCN2C(=O)Oc2ccc(C)cc2)cc1 (some centres unmarked) [Compound 1645]
- EC50 [3]: < 0.008 µM

SMILES: O=C(Oc1ccc(Cl)cc1)N1CCc2c([nH]c3ccc(Cl)cc23)C1c1ccc(OCC(O)CN2CCOCC2)cc1 (centres unmarked) [Compound 904]
- EC50 [1]: < 0.008 µM

SMILES: Cc1ccc(C2c3[nH]c4ccc(Br)cc4c3CCN2C(=O)Oc2ccc(F)cc2)cc1 (centres unmarked) [Compound 398]
- EC50 [2]: < 0.008 µM

SMILES: O=C(Oc1ccc(F)cc1)N1CCc2c([nH]c3ccc(Cl)cc23)C1c1ccc(OCCCCNCCO)cc1 (centres unmarked) [Compound 735]
- EC50 [1]: < 0.008 µM

SMILES: O=C(Oc1ccc(F)cc1)N1CCc2c([nH]c3ccc(Cl)cc23)C1c1ccc(OCCCn2ccnc2)cc1 (centres unmarked) [Compound 889]
- EC50 [2]: < 0.008 µM

SMILES: COCC(=O)NCC(O)CCOc1ccc([C@H]2c3[nH]c4ccc(Cl)cc4c3CCN2C(=O)Oc2ccc(C)cc2)cc1 (some centres unmarked) [Compound 1301]
- EC50 [2]: 0.008 to 0.04 µM

SMILES: CCCOC(=O)NCC(O)CCOc1ccc([C@H]2c3[nH]c4ccc(Cl)cc4c3CCN2C(=O)Oc2ccc(Cl)cc2)cc1 (some centres unmarked) [Compound 1666]
- EC50 [3]: < 0.008 µM

SMILES: O=C(Oc1ccc(Cl)cc1)N1CCc2c([nH]c3ccc(Cl)cc23)C1c1ccc(OCCCCN2CCCCC2)cc1 (centres unmarked) [Compound 703]
- EC50 [1]: 0.008 to 0.04 µM

SMILES: O=C(Oc1ccc(Cl)cc1)N1CCc2c([nH]c3ccc(Cl)cc23)C1c1ccc(OCCCN2CCC(O)CC2)cc1 (centres unmarked) [Compound 1537]
- EC50 [1]: < 0.008 µM

SMILES: COc1ccc(C2c3[nH]c4ccc(Cl)cc4c3CCN2C(=O)Oc2ccc(F)cc2)c(F)c1 (centres unmarked) [Compound 1265]
- EC50 [2]: 0.008 to 0.04 µM

SMILES: O=C(Oc1ccccc1)N1CCc2c([nH]c3ccc(Cl)cc23)C1c1ccc(OCCCn2nccn2)cc1 (centres unmarked) [Compound 1078]
- EC50 [2]: 0.008 to 0.04 µM

SMILES: O=C(Oc1ccc(F)cc1)N1CCc2c([nH]c3ccc(Cl)cc23)C1c1ccc(OCC(O)Cn2ccnn2)cc1 (centres unmarked) [Compound 1066]
- EC50 [4]: < 0.008 µM

SMILES: O=C(Oc1ccc(F)cc1)N1CCc2c([nH]c3ccc(Cl)cc23)C1c1ccc(OCCCn2cncn2)cc1 (centres unmarked) [Compound 892]
- EC50 [2]: < 0.008 µM

SMILES: COc1cc(C2c3[nH]c4ccc(Cl)cc4c3CCN2C(=O)Oc2ccc(C)cc2)ccc1OCCCn1cncn1 (centres unmarked) [Compound 1152]
- EC50 [2]: 0.008 to 0.04 µM

SMILES: COCCOc1ccc(C2c3[nH]c4ccc(Cl)cc4c3CCN2C(=O)Oc2ccc(OC)cc2)cc1 (centres unmarked) [Compound 465]
- EC50 [2]: 0.008 to 0.04 µM

SMILES: CCOC(=O)Nc1ccc(C2c3[nH]c4ccc(Cl)cc4c3CCN2C(=O)Oc2ccc(Cl)cc2)cc1 (centres unmarked) [Compound 467]
- EC50 [2]: 0.008 to 0.04 µM

- EC50 [3]: < 0.008 µM
SMILES: CCOC(=O)NC[C@@H](O)COc1ccc([C@H]2c3[nH]c4ccc(Cl)cc4c3CCN2C(=O)Oc2ccc(F)cc2)cc1 [Compound 1664]

SMILES: CCC(=O)NCC(O)COc1ccc(C2c3[nH]c4ccc(Cl)cc4c3CCN2C(=O)Oc2ccc(Cl)cc2)cc1 (centres unmarked) [Compound 1558]
- EC50 [3]: 0.008 to 0.04 µM

SMILES: O=C(Oc1ccc(F)cc1)N1CCc2c([nH]c3ccc(Cl)cc23)C1c1ccc(OCCCCn2cncn2)cc1 (centres unmarked) [Compound 743]
- EC50 [2]: < 0.008 µM

SMILES: O=C(Oc1ccc(Cl)cc1)N1CCc2c([nH]c3ccc(Cl)cc23)[C@@H]1c1ccc(OCCCN(CCO)CCO)cc1 [Compound 1258]
- EC50 [1]: < 0.008 µM

SMILES: COCCOc1ccc(C2c3[nH]c4ccc(Cl)cc4c3CCN2C(=O)Oc2ccc(Cl)cc2)cc1 (centres unmarked) [Compound 418]
- EC50 [2]: < 0.008 µM

SMILES: O=C1OCC(COc2ccc(C3c4[nH]c5ccc(Cl)cc5c4CCN3C(=O)Oc3ccc(Cl)cc3)cc2)O1 (centres unmarked) [Compound 421]
- EC50 [2]: < 0.008 µM

SMILES: C[Si](C)(C)CCS(=O)(=O)N1CCC(Oc2ccc([C@H]3c4[nH]c5ccc(Cl)cc5c4CCN3C(=O)Oc3ccc(Cl)cc3)cc2)CC1 [Compound 1652]
- EC50 [3]: < 0.008 µM

SMILES: COc1ccc(C2c3[nH]c4ccc(Cl)cc4c3CCN2C(=O)Oc2ccc(C)cc2)c(F)c1 (centres unmarked) [Compound 1266]
- EC50 [2]: < 0.008 µM

SMILES: O=C(Oc1ccc(F)cc1)N1CCc2c([nH]c3ccc(Cl)cc23)C1c1ccc(OCCCCCl)cc1 (centres unmarked) [Compound 719]
- EC50 [2]: < 0.008 µM

SMILES: O=C(Oc1ccc(Cl)cc1)N1CCc2c([nH]c3ccc(Cl)cc23)C1c1ccc(F)cc1 (centres unmarked) [Compound 444]
- EC50 [2]: 0.008 to 0.04 µM

SMILES: COC(=O)c1ccc(C2c3[nH]c4ccc(Cl)cc4c3CCN2C(=O)Oc2ccc(F)cc2)cc1 (centres unmarked) [Compound 579]
- EC50 [4]: < 0.008 µM

SMILES: Cc1cc(NCCOc2ccc(C3c4[nH]c5ccc(Cl)cc5c4CCN3C(=O)Oc3ccc(Cl)cc3)cc2)on1 (centres unmarked) [Compound 1419]
- EC50 [3]: 0.008 to 0.04 µM

- EC50 [2]: < 0.008 µM
SMILES: CC1(C)OC[C@H](CCOc2ccc(C3c4[nH]c5ccc(Cl)cc5c4CCN3C(=O)Oc3ccc(Cl)cc3)cc2)O1 (some centres unmarked) [Compound 1162]

SMILES: O=C(Oc1ccc(Cl)cc1)N1CCc2c([nH]c3ccc(Cl)cc23)[C@@H]1c1ccc(OC[C@H](O)CO)cc1 [Compound 1223]
- EC50 [2]: < 0.008 µM

SMILES: CN1CCN(CCCCCCOc2ccc(C3c4[nH]c5ccc(Cl)cc5c4CCN3C(=O)Oc3ccc(Cl)cc3)cc2)CC1 (centres unmarked) [Compound 788]
- EC50 [1]: 0.008 to 0.04 µM

SMILES: CN1CCN(CCCCOc2ccc(C3c4[nH]c5ccc(Cl)cc5c4CCN3C(=O)Oc3ccc(F)cc3)cc2)CC1 (centres unmarked) [Compound 740]
- EC50 [1]: 0.04 to 0.2 µM

SMILES: O=C(Oc1ccc(Cl)cc1)N1CCc2c([nH]c3ccc(Cl)cc23)C1c1ccc(OCCN2CCOCC2)cc1 (centres unmarked) [Compound 331]
- EC50 [1]: > 1 µM

- EC50 [3]: 0.008 to 0.04 µM
SMILES: N#CCOc1ccc(C2c3[nH]c4ccc(Cl)cc4c3CCN2C(=O)Oc2ccc(F)cc2)cc1 (centres unmarked) [Compound 1548]
